Source: patent US10662183B2, “Inhibitors of myocardin-related transcription factor and serum response factor (MRTF/SRF)-mediated gene transcription and methods for use of the same” (THE REGENTS OF THE UNIVERSITY OF MICHIGAN, priority 2014, dated 2020)

System: SRE.L-firefly luciferase reporter (Rho/MKL1 pathway) in PC-3 prostate cancer cells
Experiment: SRE.L-luciferase reporter assay
Type: cell-based
Conditions: 19 h, PC-3 cells transfected with Gα12Q231L, SRE.L and pRL-TK reporters; compound 19 hrs
Method: Seed PC-3 prostate cancer cells (40,000 cells/well) were grown in 96-well plates in 10% FBS containing DMEM medium. Cells were transiently transfected with the Ga12QL activator of the Rho/MKL1 pathway, along with the SRE.L-firefly luciferase reporter construct for 6 hours. Additionally, cells were co-transfected with the TK-Renilla luciferase reporter as an indicator of non-specific compound effects. Various concentrations of the compounds disclosed herein were added to the 96-well plates. Plates were incubated for 19 hours at 37° C. and 5% C02 in 0.5% FBS containing DMEM medium. Cells were lysed with IX Passive Lysis Buffer (Promega). Plates were incubated for 30 minutes at room temperature. Luminescence counts were read with a Victor2 (Perkin-Elmer) plate reader.
One hour prior to cell lysis for the dual luciferase assay, 10 μl: per well of WST1 reagent (Roche) was added to the 96-well plates. Plates were incubated for 1 hour at 37° C. and 5% CO2. Cell viability was measured by WST1 absorbance at 450 nm with a Victor2 (Perkin-Elmer) plate reader.
Biological activity of the compounds disclosed herein were assessed in the SRE.L luciferase reporter assay. PC-3 prostate cancer cells were co-transfected with 2 ng of the Gα12Q231L expression plasmid along with 50 ng of the SRE.L and 7 ng of the pRL-TK luciferase reporter plasmids, as described in the Materials and Methods section. Cells were treated with 0 (vehicle, DMSO alone), 1, 3, 10, 30, and 100 μM of a compound disclosed herein for 19 hrs after transfection before lysis. Luminescence was determined as described in the Materials and Methods section. Just before cell lysis, the viability of the cells was measured using the WST-1 cell proliferation reagent as described in the Materials and Methods section. Data are expressed as percentage of inhibition (DMSO alone=0%). The experiments were performed three separate times to achieve n=3 in triplicate.

Row | IC50 | SMILES
1 | 5.3 µM | O=C(Nc1ccc(Cl)cc1)C1CN(C(=O)c2cncc(-c3ccco3)c2)CC(F)(F)C1 (stereo not shown) [Example E-026, N-(4-chlorophenyl)-5,5-difluoro-1-{[5-(furan-2-yl)pyridin-3-yl]carbonyl}piperidine-3-carboxamide]
2 | 12.5 µM | O=C(Nc1ccc(Cl)cc1)C1CC(O)CN(C(=O)c2cccc(-c3ccco3)c2)C1 (stereo not shown) [Example E-027, N-(4-chlorophenyl)-1-{[3-(furan-2-yl)phenyl]carbonyl}-5-hydroxypiperidine-3-carboxamide]
3 | 5 µM | CC1(C(=O)Nc2ccc(Cl)cc2)CCCN(C(=O)c2cccc(-c3ccco3)c2)C1 (stereo not shown) [Example E-028, N-(4-chlorophenyl)-1-(3-(furan-2-yl)benzoyl)-3-methylpiperidine-3-carboxamide]
4 | 3.1 µM | Cc1ccc(-c2cccc(C(=O)N3CCCC(C(=O)Nc4ccc(Cl)cc4)C3)c2)o1 (stereo not shown) [Example E-029, N-(4-chlorophenyl)-1-(3-(5-methylfuran-2-yl)benzoyl)piperidine-3-carboxamide]
5 | 6.1 µM | O=C(Nc1ccc(Cl)cc1)C1CCCN(C(=O)c2cccc(-n3cccn3)c2)C1 (stereo not shown) [Example E-030, 1-(3-(1H-pyrazol-1-yl)benzoyl)-N-(4-chlorophenyl)piperidine-3-carboxamide]
6 | 3.4 µM | O=C(Nc1ccc(Cl)cc1)C1CCCN(C(=O)c2cccc(-c3cn[nH]c3)c2)C1 (stereo not shown) [Example E-031, 1-(3-(1H-pyrazol-4-yl)benzoyl)-N-(4-chlorophenyl)piperidine-3-carboxamide]
7 | 3.2 µM | O=C(Nc1ccc(Cl)cc1)C1CCCN(C(=O)c2cccc(-c3cc[nH]n3)c2)C1 (stereo not shown) [Example E-032, 1-(3-(1H-pyrazol-3-yl)benzoyl)-N-(4-chlorophenyl)piperidine-3-carboxamide]
8 | 2.7 µM | COc1ccc2nc(C(=O)N3CCCC(C(=O)Nc4ccc(Cl)cc4)C3)[nH]c2c1 (stereo not shown) [Example E-033, N-(4-chlorophenyl)-1-(6-methoxy-1H-benzo[d]imidazole-2-carbonyl)piperidine-3-carboxamide]
9 | > 100 µM | O=C(Nc1ccc(Cl)cc1)C1CCCN(C(=O)c2cc(-c3ccco3)ncn2)C1 (stereo not shown) [Example E-034, N-(4-chlorophenyl)-1-(6-(furan-2-yl)pyrimidine-4-carbonyl) piperidine-3-carboxamide]
10 | 8 µM | Cn1c(C(=O)N2CCCC(C(=O)Nc3ccc(Cl)cc3)C2)nc2ccccc21 (stereo not shown) [Example E-035, N-(4-chlorophenyl)-1-(1-methyl-1H-benzo[d]imidazole-2-carbonyl)piperidine-3-carboxamide]
11 | > 100 µM | O=C(Nc1ccc(Cl)cc1)C1CCCN(C(=O)c2cnc(Br)s2)C1 (stereo not shown) [Example E-036, 1-(2-bromothiazole-5-carbonyl)-N-(4-chlorophenyl) piperidine-3-carboxamide]
12 | 18 µM | O=C(Nc1ccc(Cl)cc1)C1CCCN(C(=O)c2cnc(-c3ccco3)s2)C1 (stereo not shown) [Example E-037, N-(4-chlorophenyl)-1-(2-(furan-2-yl)thiazole-5-carbonyl)piperidine-3-carboxamide]
13 | 6.5 µM | O=C(Nc1ccc(Cl)cc1)C1CCCN(C(=O)c2csc(-c3ccco3)n2)C1 (stereo not shown) [Example E-038, N-(4-chlorophenyl)-1-(2-(furan-2-yl)thiazole-4-carbonyl) piperidine-3-carboxamide]
14 | 43 µM | O=C(Nc1ccc(Cl)cc1)C1CCCN(C(=O)c2cc(-c3ccco3)on2)C1 (stereo not shown) [Example E-039, N-(4-chlorophenyl)-1-(5-(furan-2-yl)isoxazole-3-carbonyl) piperidine-3-carboxamide]
15 | 8.1 µM | O=C(Nc1ccc(Cl)cc1)C1CCCN(C(=O)c2cc(-c3ccco3)[nH]n2)C1 (stereo not shown) [Example E-040, N-(4-chlorophenyl)-1-(5-(furan-2-yl)-1H-pyrazole-3-carbonyl)piperidine-3-carboxamide]
16 | 0.83 µM | O=C(Nc1ccc(Cl)cc1)C1CN(C(=O)c2cc(F)cc(-c3ccncc3)c2)CC(F)(F)C1 (stereo not shown) [Example E-041, N-(4-chlorophenyl)-5,5-difluoro-1-(3-fluoro-5-(pyridin-4-yl)benzoyl)piperidine-3-carboxamide]
17 | 0.91 µM | O=C(Nc1ccc(Cl)cc1)C1CN(C(=O)c2cncc(-c3ccncc3)c2)CC(F)(F)C1 (stereo not shown) [Example E-042, 1-([3,4′-bipyridine]-5-carbonyl)-N-(4-chlorophenyl)-5,5-difluoropiperidine-3-carboxamide]

Row | IC50 | SMILES
18 | 5 µM | NC1CC(C(=O)Nc2ccc(Cl)cc2)CN(C(=O)c2cccc(-c3ccco3)c2)C1 (stereo not shown) [Example E-043, 5-amino-N-(4-chlorophenyl)-1-(3-(furan-2-yl)benzoyl)piperidine-3-carboxamide]
19 | 2.2 µM | CNC1CC(C(=O)Nc2ccc(Cl)cc2)CN(C(=O)c2cccc(-c3ccco3)c2)C1 (stereo not shown) [Example E-044, N-(4-chlorophenyl)-1-(3-(furan-2-yl)benzoyl)-5-(methylamino)piperidine-3-carboxamide]
20 | 0.31 µM | Cn1cncc1-c1cccc(C(=O)N2CC(C(=O)Nc3ccc(Cl)cc3)CC(F)(F)C2)c1 (stereo not shown) [Example E-047, N-(4-chlorophenyl)-5,5-difluoro-1-(3-(1-methyl-1H-imidazol-5-yl)benzoyl)piperidine-3-carboxamide]
21 | 0.047 µM | O=C(Nc1ccc(Cl)cc1)C1CC(NCc2ccccc2)CN(C(=O)c2cccc(-c3ccco3)c2)C1 (stereo not shown) [Example E-048, 5-(benzylamino)-N-(4-chlorophenyl)-1-(3-(furan-2-yl)benzoyl)piperidine-3-carboxamide]
22 | 6.3 µM | CCC(=O)NC1CC(C(=O)Nc2ccc(Cl)cc2)CN(C(=O)c2cccc(-c3ccco3)c2)C1 (stereo not shown) [Example E-049, N-(4-chlorophenyl)-1-(3-(furan-2-yl)benzoyl)-5-propionamidopiperidine-3-carboxamide]
23 | 1.1 µM | O=C(Nc1ccc(Cl)cc1)C1CN(C(=O)c2cccc(-c3ncccn3)c2)CC(F)(F)C1 (stereo not shown) [Example E-050, N-(4-chlorophenyl)-5,5-difluoro-1-(3-(pyrimidin-2-yl)benzoyl)piperidine-3-carboxamide]
24 | 3.3 µM | O=C(c1cccc(-c2cn[nH]c2)c1)N1CC(COc2ccc(Cl)cc2)CC(F)(F)C1 (stereo not shown) [Example E-051, (3-(1H-pyrazol-4-yl)phenyl)(5-((4-chlorophenoxy)methyl)-3,3-difluoropiperidin-1-yl)methanone]
25 | 1.6 µM | O=C(Nc1ccc(Cl)cc1)C1CN(C(=O)c2cccc(-c3ccco3)c2)CCS1 (stereo not shown) [Example E-052, N-(4-chlorophenyl)-4-(3-(furan-2-yl)benzoyl) thiomorpholine-2-carboxamide]
26 | 6.8 µM | O=C(Nc1ccc(Cl)cc1)C1CN(C(=O)c2cccc(-c3ccco3)c2)CCS1(=O)=O (stereo not shown) [Example E-053, N-(4-chlorophenyl)-4-(3-(furan-2-yl)benzoyl) thiomorpholine-2-carboxamide 1,1-dioxide]
27 | 22 µM | COC(=O)NC1CC(C(=O)Nc2ccc(Cl)cc2)CN(C(=O)c2cccc(-c3ccco3)c2)C1 (stereo not shown) [Example E-057, methyl (5-((4-chlorophenyl)carbamoyl)-1-(3-(furan-2-yl)benzoyl)piperidin-3-yl)carbamate]
28 | 15 µM | CCOC(=O)NC1CC(C(=O)Nc2ccc(Cl)cc2)CN(C(=O)c2cccc(-c3ccco3)c2)C1 (stereo not shown) [Example E-058, ethyl (5-((4-chlorophenyl)carbamoyl)-1-(3-(furan-2-yl)benzoyl)piperidin-3-yl)carbamate]
29 | 31 µM | O=C(c1cccc(-c2ccco2)c1)N1CC(COc2ccc(Cl)cc2)CC(F)(F)C1 (stereo not shown) [Example E-059, (5-((4-chlorophenoxy)methyl)-3,3-difluoropiperidin-1-yl) (3-(furan-2-yl)phenyl)methanone]
30 | 21 µM | O=C(c1cccc(-c2ccco2)c1)N1CCCC(NS(=O)(=O)c2ccc(Cl)cc2)C1 (stereo not shown) [Example E-062, 4-chloro-N-(1-(3-(furan-2-yl)benzoyl)piperidin-3-yl)benzenesulfonamide]
31 | 15 µM | O=C1CC(C(=O)Nc2ccc(Cl)cc2)CN(C(=O)c2cccc(-c3ccco3)c2)C1 (stereo not shown) [Example E-063, N-(4-chlorophenyl)-1-(3-(furan-2-yl)benzoyl)-5-oxopiperidine-3-carboxamide]
32 | 6.9 µM | CN(C)C1CC(C(=O)Nc2ccc(Cl)cc2)CN(C(=O)c2cccc(-c3ccco3)c2)C1 (stereo not shown) [Example E-064, N-(4-chlorophenyl)-5-(dimethylamino)-1-(3-(furan-2-yl)benzoyl)piperidine-3-carboxamide]
33 | 13 µM | O=C(NC1CCCN(C(=O)c2cccc(-c3ccco3)c2)C1)c1ccc(Cl)cc1 (stereo not shown) [Example E-065, 4-chloro-N-(1-(3-(furan-2-yl)benzoyl)piperidin-3-yl)benzamide]

Same assay, conditions: PC-3 cells transfected with Gα12Q231L, SRE.L and pRL-TK reporters; compound 19 hrs

Row | SMILES | IC50
34 | O=C(NC1CC(C(=O)Nc2ccc(Cl)cc2)CN(C(=O)c2cccc(-c3ccco3)c2)C1)Oc1ccccc1 (stereo not shown) [Example E-056, phenyl (5-((4-chlorophenyl)carbamoyl)-1-(3-(furan-2-yl)benzoyl)piperidin-3-yl)carbamate] | 38 µM
